Results on 60 compounds are retold here after US10526291B2, “Potent dual BRD4-kinase inhibitors as cancer therapeutics” (H. Lee Moffitt Cancer Center and Research Institute, Inc., priority 2014, dated 2020).

For orientation: ΔTm means the shift of the melting midpoint relative to a reference. For orientation: IC50 means the concentration that gives 50% inhibition.

The structures appear in SMILES notation.

The target in the assay is BRD4 (Homo sapiens, UniProt O60885). The assay is described as follows: Differential Scanning Fluorimetry (DSF), stability of BRD4 upon ligand binding. The note with it: for ΔTm at 4 µM: 100 μM protein, 4 μM compound and 2% DMSO; for IC50: estimated. The protocol: DSF=Differential Scanning Fluorimetry; provides a measure of the increased stability of BRD4 upon ligand binding The DSF experiment was run at 100 μM protein, 4 μM compound and 2% DMSO.

As for `Cc1cnc(Nc2ccc(N3CCN(C)CC3)cc2)nc1Nc1ccc(Cl)c(NS(=O)(=O)c2ccccc2)c1`, the ΔTm at 4 µM stood at 4.1 ± 0.1 °C and the 50% inhibitory concentration (IC50) is 960 nM.
`Cc1cnc(Nc2ccc(C(=O)NC3CCN(C)CC3)c(F)c2)nc1Nc1ccc2c(c1)N(S(=O)(=O)C(C)(C)C)CC2`: the thermal shift (ΔTm) at 4 µM was determined as 12.3 ± 0.116 °C and the 50% inhibitory concentration (IC50) is 8.6 nM.
In the same order, the values of `Cc1cnc(Nc2ccc(N3CCN(C)CC3)cc2)nc1Nc1ccc(F)c(NS(=O)(=O)C(C)(C)C)c1` are 9.5 ± 0.07 °C and 14 nM.
The matching figures for `CN1CCN(c2ccc(Nc3ncc(C(N)=O)c(Nc4cccc(NS(=O)(=O)C5CC5)c4)n3)cc2)CC1`: 2.3 ± 0.073 °C and 3800 nM.
For `COc1cc(Nc2nc(Nc3ccc(C(=O)NC4CCN(C)CC4)cc3)ncc2C)cc(OC)c1Cl`, the shift in melting temperature (ΔTm) at 4 µM was 5.9 ± 0.063 °C and the IC50 was 2300 nM.
The matching figures for `Cc1cnc(Nc2ccc(N3CCN(C)CC3)cc2)nc1Nc1ccc(C(=O)NC2CC2)cc1`: 6.5 ± 0.11 °C and 150 nM.
Consider `Cc1nc(Nc2ccc(N3CCOCC3)cc2)nc(Nc2cccc(S(=O)(=O)NC(C)(C)C)c2)c1C`, for which the ΔTm at 4 µM came to 1.9 ± 0.17 °C and the half-maximal inhibitory concentration (IC50) was 5030 nM.
In the same order, the values of `COc1cc(Nc2ccnc(Nc3ccc(N4CCN(C)CC4)cc3)n2)ccc1Cl` are 2.5 ± 0.069 °C and 3200 nM.
In the case of `Cc1cnc(Nc2ccc(N3CCN(C)CC3)cc2)nc1Nc1cccc(NS(=O)(=O)N(C)C)c1`, the ΔTm at 4 µM was found to be 3.3 ± 0.36 °C and the 50% inhibitory concentration (IC50) is 1800 nM.
For the compound `COc1cc(Nc2nc(Nc3ccc(N4CCN(C)CC4)cc3)ncc2Cl)c(OC)cc1Cl`, the ΔTm at 4 µM was 0.073 ± 0.13 °C and the 50% inhibitory concentration (IC50) is 20500 nM.
With `CC(C)(C)c1cccc(Nc2nc(Nc3ccc(N4CCOCC4)cc3)ncc2Cl)c1`, the ΔTm at 4 µM was -0.34 °C and the 50% inhibitory concentration (IC50) is 28200 nM.
Take `CC(C)S(=O)(=O)Nc1cccc(Nc2nc(Nc3ccc(N4CCN(C)CC4)cc3)nc3c2CCC3)c1`: the ΔTm at 4 µM turned out to be 4.3 ± 0.14 °C and the IC50 was 770 nM.
The matching figures for `COc1ccc(Nc2nc(C)c(C)c(Nc3cccc(S(N)(=O)=O)c3)n2)cc1`: 0.12 ± 0.13 °C and 19800 nM.
In the same order, the values of `CN1CCN(c2ccc(Nc3ncc(Cl)c(Nc4ccc5c(c4)OCO5)n3)cc2)CC1` are 0.073 ± 0.083 °C and 20500 nM.
`CN1CCN(c2ccc(Nc3ncc(F)c(Nc4cccc(NS(=O)(=O)C(C)(C)C)c4)n3)cc2)CC1`: the ΔTm at 4 µM was determined as 5.2 ± 0.15 °C and the IC50 was 400 nM.
The matching figures for `COc1cc(Nc2nc(Nc3ccc(N4CCNCC4)cc3)ncc2Br)ccc1Cl`: 4.5 ± 0.1 °C and 680 nM.
In the same order, the values of `CCc1cnc(Nc2ccc(N3CCN(C)CC3)cc2)nc1Nc1cccc(S(=O)(=O)NC(C)C)c1` are 2.2 °C and 3990 nM.
In the same order, the values of `CCc1cnc(Nc2ccc(N3CCN(C)CC3)cc2)nc1Nc1cccc(S(=O)(=O)NC(C)(C)C)c1` are 3.2 °C and 1850 nM.
Regarding `Cc1cnc(Nc2ccc(N3CCN(C)CC3)cc2)nc1Nc1cccc(C(C)(C)C)c1`, the ΔTm at 4 µM was found to be 2.9 ± 0.12 °C and the IC50 was 2330 nM.
In the same order, the values of `CCOc1cc(Nc2nc(Nc3ccc(N4CCN(C)CC4)cc3)ncc2Cl)ccc1Cl` are 3.7 ± 0.12 °C and 1300 nM.
On to `CC(C)NS(=O)(=O)c1cccc(Nc2nc(Nc3ccc(N4CCN(C)CC4)cc3)nc3c2CCC3)c1`, for which the ΔTm at 4 µM stood at 3.8 ± 0.056 °C and the IC50 was 1200 nM.
In the same order, the values of `CCOc1cccc(Nc2nc(Nc3ccc(N4CCN(C)CC4)cc3)ncc2C)c1` are 5.4 ± 0.15 °C and 340 nM.
For `Cc1cnc(Nc2ccc(N3CCN(C)CC3)cc2)nc1Nc1ccc2c(c1)OCCO2`, the shift in melting temperature (ΔTm) at 4 µM was found to be 4.4 ± 0.11 °C and the concentration for half-maximal inhibition (IC50) was 740 nM.
In the case of `Cc1cnc(Nc2ccc(N3CCN(C)CC3)cc2)nc1Nc1cccc(NS(=O)(=O)CC(C)C)c1`, the thermal shift (ΔTm) at 4 µM was 6.58 ± 0.103 °C and the IC50 was 347 nM.
In the same order, the values of `Cc1cnc(Nc2ccc(N3CCN(C)CC3)c(F)c2)nc1Nc1ccc(Cl)c(NS(=O)(=O)CC(C)C)c1` are 8.89 ± 0.044 °C and 74.8 nM.
Turning to `Cc1cnc(Nc2ccc(C3CCN(C)CC3)cc2)nc1Nc1cccc(NS(=O)(=O)C(C)(C)C)c1`, the thermal shift (ΔTm) at 4 µM is 7.6 ± 0.28 °C and the IC50 is 61 nM.
In the same order, the values of `CN1CCN(c2ccc(Nc3ncc(F)c(Nc4ccc(C(=O)NC5CC5)cc4)n3)cc2)CC1` are 3.4 ± 0.27 °C and 1600 nM.
In the same order, the values of `Cc1cnc(Nc2ccc(N3CCN(C)CC3)c(F)c2)nc1Nc1ccc2c(c1)N(S(=O)(=O)C(C)(C)C)CCC2` are 10.5 ± 0.15 °C and 27.7 nM.
Regarding `CN1CCN(c2ccc(Nc3ncc(C(F)(F)F)c(Nc4cccc(S(=O)(=O)NC(C)(C)C)c4)n3)cc2)CC1`, the thermal shift (ΔTm) at 4 µM turned out to be 0.2 ± 0.082 °C and the IC50 was 18600 nM.
In the same order, the values of `COc1ccc(Nc2nc(C)c(C)c(Nc3cccc(S(=O)(=O)NC(C)(C)C)c3)n2)cc1` are 0.22 ± 0.2 °C and 18300 nM.
The matching figures for `Cc1cnc(Nc2ccc(N3CCN(C)CC3)cc2)nc1Nc1ccc(Cl)c(S(=O)(=O)NC(C)(C)C)c1`: 8.4 ± 0.13 °C and 34 nM.
The matching figures for `COc1ccc(Nc2nc(Nc3ccc(N4CCN(C)CC4)cc3)ncc2Cl)cc1OC`: 5.1 ± 0.039 °C and 430 nM.
For `Cc1ccc(Nc2nc(Nc3ccc(N4CCN(C)CC4)cc3)ncc2C)cc1NS(=O)(=O)C(C)(C)C`, the ΔTm at 4 µM came to 9.2 ± 0.12 °C and the concentration for half-maximal inhibition (IC50) is 18 nM.
The matching figures for `Cc1cnc(Nc2cc(F)c(N3CCN(C)CC3)c(F)c2)nc1Nc1cccc(NS(=O)(=O)C(C)(C)C)c1`: 12.8 ± 0.058 °C and 6.28 nM.
In the same order, the values of `CN1CCN(c2ccc(Nc3nc4c(c(Nc5cccc(NS(=O)(=O)C(C)(C)C)c5)n3)COC4)cc2)CC1` are 6 ± 0.13 °C and 220 nM.
In the case of `Cc1cnc(Nc2ccc(N3CCN(C)CC3)cc2)nc1Nc1ccc2c(c1)N(S(=O)(=O)C(C)(C)C)CC2`, the shift in melting temperature (ΔTm) at 4 µM amounted to 9.97 ± 0.08 °C and the 50% inhibitory concentration (IC50) was 39 nM.
Take `COc1cc(Nc2nc(Nc3ccc(N4CCN(C)CC4)cc3)ncc2Cl)cc(OC)c1`: the shift in melting temperature (ΔTm) at 4 µM is 3.5 ± 0.17 °C and the half-maximal inhibitory concentration (IC50) was 1500 nM.
Take `Cc1cnc(Nc2ccc(N3CCN(C)CC3)c(Cl)c2)nc1Nc1ccc(Cl)c(NS(=O)(=O)C(C)(C)C)c1`: the ΔTm at 4 µM came to 9.54 ± 0.163 °C and the IC50 is 51.4 nM.
The matching figures for `Cc1cnc(Nc2ccc(N3CCN(C)CC3)cc2)nc1Nc1ccc(Cl)c(OC(C)C)c1`: 6.3 ± 0.1 °C and 170 nM.
In the same order, the values of `CN1CCN(c2ccc(Nc3nc(Nc4cccc(NS(=O)(=O)C5CC5)c4)c4ccccc4n3)cc2)CC1` are 5.8 ± 0.11 °C and 260 nM.
Consider `COc1cc(Nc2nc(Nc3ccc(N4CCN(C)CC4)cc3)ncc2C(=O)O)ccc1Cl`, for which the shift in melting temperature (ΔTm) at 4 µM worked out at 0.0094 ± 0.11 °C and the half-inhibitory concentration (IC50) is 22000 nM.
Take `COc1cc(Nc2ncc(C(F)(F)F)c(Nc3ccc(N4CCN(C)CC4)cc3)n2)ccc1Cl`: the ΔTm at 4 µM is 0.56 ± 0.37 °C and the half-inhibitory concentration (IC50) was 14100 nM.
Turning to `CCOC(=O)c1cnc(Nc2ccc(N3CCN(C)CC3)cc2)nc1Nc1cccc(S(=O)(=O)NC(C)(C)C)c1`, the ΔTm at 4 µM is -0.0056 ± 0.24 °C and the half-maximal inhibitory concentration (IC50) is over 20000 nM.
The matching figures for `CN1CCN(c2ccc(Nc3nc4c(c(Nc5ccc(Cl)c(NS(=O)(=O)C6CC6)c5)n3)CCC4)cc2)CC1`: 4.6 ± 0.05 °C and 620 nM.
In the same order, the values of `Cc1cnc(Nc2ccc(N3CCN(C)CC3)cc2)nc1Nc1ccc(Cl)c([N+](=O)[O-])c1` are 2 ± 0.05 °C and 4700 nM.
On to `CN1CCN(c2ccc(Nc3ncc(CO)c(Nc4cccc(NS(=O)(=O)C(C)(C)C)c4)n3)cc2)CC1`, for which the ΔTm at 4 µM was determined as 3.1 ± 0.08 °C and the half-maximal inhibitory concentration (IC50) is 2000 nM.
The matching figures for `CCc1cnc(Nc2ccc(N3CCOCC3)cc2)nc1Nc1cccc(S(=O)(=O)NC(C)(C)C)c1`: -0.0084 °C and 21800 nM.
The matching figures for `CN1CCN(c2ccc(Nc3ncc(C(N)=O)c(Nc4cccc(S(=O)(=O)NC(C)(C)C)c4)n3)cc2)CC1`: 2.7 ± 0.0089 °C and 2700 nM.
`CN1CCN(c2ccc(Nc3nc4c(c(Nc5cccc(S(=O)(=O)NC6CC6)c5)n3)CCC4)cc2)CC1`: the ΔTm at 4 µM worked out at 4.9 ± 0.099 °C and the 50% inhibitory concentration (IC50) was 520 nM.
In the same order, the values of `CC(C)Oc1cccc(Nc2nc(Nc3ccc(N4CCN(C)CC4)cc3)ncc2Cl)c1` are 4.8 ± 0.12 °C and 540 nM.
The matching figures for `CCOC(=O)c1cnc(Nc2ccc(N3CCN(C)CC3)cc2)nc1Nc1ccc(Cl)c(OC)c1`: 0.24 ± 0.13 °C and 18000 nM.
The matching figures for `CC(C)NS(=O)(=O)c1cccc(Nc2nc(Nc3ccc(N4CCOCC4)cc3)ncc2Br)c1`: -0.79 °C and 39800 nM.
For the compound `CCOc1cccc(Nc2nc(Nc3ccc(N4CCN(C)CC4)cc3)ncc2Cl)c1`, the thermal shift (ΔTm) at 4 µM came out at 4.3 ± 0.12 °C and the IC50 was 790 nM.
In the same order, the values of `Cc1cnc(Nc2ccc(CC(=O)N3CCN(C)CC3)cc2)nc1Nc1ccc(Cl)c(NS(=O)(=O)C(C)(C)C)c1` are 9.8 ± 0.03 °C and 12 nM.
The matching figures for `Cc1cnc(Nc2ccc(N3CCN(C)CC3)cc2)nc1Nc1cccc(NC(=O)C2CC2)c1`: 4.6 ± 0.21 °C and 630 nM.
The matching figures for `CN1CCN(c2ccc(Nc3ncc(Cl)c(Nc4ccc5c(c4)OCCO5)n3)cc2)CC1`: 2.6 ± 0.15 °C and 2940 nM.
Turning to `CN1CCN(C(=O)Cc2ccc(Nc3ncc(F)c(Nc4ccc(C(=O)NC5CC5)cc4)n3)cc2)CC1`, the thermal shift (ΔTm) at 4 µM was 4.2 ± 0.2 °C and the half-inhibitory concentration (IC50) was 850 nM.
Take `CCc1cnc(Nc2ccc(N3CCN(C)CC3)cc2)nc1Nc1ccc(Cl)c(OC)c1`: the ΔTm at 4 µM came out at 1.3 ± 0.11 °C and the 50% inhibitory concentration (IC50) was 7980 nM.
As for `Cc1cnc(Nc2ccc(N3CCN(C)CC3)cc2)nc1Nc1cccc(NS(C)(=O)=O)c1`, the ΔTm at 4 µM is 4.6 ± 0.13 °C and the half-maximal inhibitory concentration (IC50) was 630 nM.
For `COc1cccc(Nc2nc(Nc3ccc(N4CCN(C)CC4)cc3)ncc2Cl)c1`, the ΔTm at 4 µM came to 1.68 ± 0.078 °C and the half-maximal inhibitory concentration (IC50) is 5960 nM.
